Source: ChEMBL document CHEMBL4507265 (2021)

How the values were obtained:
[1] = target: Mitogen-activated protein kinase kinase kinase kinase 3 (Homo sapiens) (UniProt Q8IVH8); conditions: Compound concentration 1000.0 nM
[2] = target: Ephrin type-B receptor 1 (Homo sapiens) (UniProt P54762); conditions: Compound concentration 1000.0 nM
[3] = target: Cyclin-dependent kinase 19 (Homo sapiens) (UniProt Q9BWU1); conditions: Compound concentration 1000.0 nM
[4] = target: Cyclin-dependent kinase 8 (Homo sapiens) (UniProt P49336); conditions: Compound concentration 1000.0 nM
[5] = target: STE20/SPS1-related proline-alanine-rich protein kinase (Homo sapiens) (UniProt Q9UEW8); conditions: Compound concentration 1000.0 nM
[6] = target: D(2) dopamine receptor (Homo sapiens) (UniProt P14416); conditions: Compound concentration 10.0 uM
[7] = target: Tyrosine-protein kinase ITK/TSK (Homo sapiens) (UniProt Q08881); conditions: Compound concentration 1000.0 nM
[8] = target: 1-phosphatidylinositol 3-phosphate 5-kinase (Homo sapiens) (UniProt Q9Y2I7); conditions: Compound concentration 1000.0 nM
[9] = target: Mitogen-activated protein kinase 8 (Homo sapiens) (UniProt P45983); conditions: Compound concentration 1000.0 nM
[10] = system: eIF-2-alpha kinase GCN2 (Homo sapiens), Q9P2K8 [S808G]; conditions: Compound concentration 1000.0 nM
[11] = target: Ribosomal protein S6 kinase alpha-1 (Homo sapiens) (UniProt Q15418); conditions: Compound concentration 1000.0 nM
[12] = target: Serine/threonine-protein kinase MARK2 (Homo sapiens) (UniProt Q7KZI7); conditions: Compound concentration 1000.0 nM
[13] = target: Tyrosine-protein kinase Fes/Fps (Homo sapiens) (UniProt P07332); conditions: Compound concentration 1000.0 nM
[14] = target: SRSF protein kinase 3 (Homo sapiens) (UniProt Q9UPE1); conditions: Compound concentration 1000.0 nM
[15] = system: Tyrosine-protein kinase ABL1 (Homo sapiens), P00519 [Y253F]; conditions: Compound concentration 1000.0 nM
[16] = target: Ribosomal protein S6 kinase beta-1 (Homo sapiens) (UniProt P23443); conditions: Compound concentration 1000.0 nM
[17] = target: Phosphatidylinositol 3-kinase C2 domain-containing subunit gamma (Homo sapiens) (UniProt O75747); conditions: Compound concentration 1000.0 nM
[18] = target: Serine/threonine-protein kinase mTOR (Homo sapiens) (UniProt P42345); conditions: Compound concentration 1000.0 nM
[19] = target: Tyrosine-protein kinase SYK (Homo sapiens) (UniProt P43405); conditions: Compound concentration 1000.0 nM
[20] = target: Dual specificity mitogen-activated protein kinase kinase 2 (Homo sapiens) (UniProt P36507); conditions: Compound concentration 1000.0 nM
[21] = target: Leucine-rich repeat serine/threonine-protein kinase 2 (Homo sapiens) (UniProt Q5S007); conditions: Compound concentration 1000.0 nM
[22] = target: Phosphatidylinositol 4-kinase beta (Homo sapiens) (UniProt Q9UBF8); conditions: Compound concentration 1000.0 nM
[23] = target: Ribosomal protein S6 kinase alpha-3 (Homo sapiens) (UniProt P51812); conditions: Compound concentration 1000.0 nM
[24] = target: Dual specificity protein kinase CLK1 (Homo sapiens) (UniProt P49759); conditions: Compound concentration 1000.0 nM
[25] = target: Activin receptor type-1 (Homo sapiens) (UniProt Q04771); conditions: Compound concentration 1000.0 nM
[26] = target: Atypical kinase COQ8B, mitochondrial (Homo sapiens) (UniProt Q96D53); conditions: Compound concentration 1000.0 nM
[27] = target: Fibroblast growth factor receptor 3 (Homo sapiens) (UniProt P22607); conditions: Compound concentration 1000.0 nM
[28] = target: Serine/threonine-protein kinase DCLK2 (Homo sapiens) (UniProt Q8N568); conditions: Compound concentration 1000.0 nM
[29] = system: Tyrosine-protein kinase ABL1 (Homo sapiens), P00519 [M351T]; conditions: Compound concentration 1000.0 nM
[30] = target: Serine/threonine-protein kinase TAO1 (Homo sapiens) (UniProt Q7L7X3); conditions: Compound concentration 1000.0 nM
[31] = target: Serine/threonine-protein kinase OSR1 (Homo sapiens) (UniProt O95747); conditions: Compound concentration 1000.0 nM
[32] = target: D(1B) dopamine receptor (Homo sapiens) (UniProt P21918); conditions: Compound concentration 10.0 uM
[33] = target: Insulin receptor (Homo sapiens) (UniProt P06213); conditions: Compound concentration 1000.0 nM
[34] = target: Fibroblast growth factor receptor 1 (Homo sapiens) (UniProt P11362); conditions: Compound concentration 1000.0 nM
[35] = target: T1, Alpha-1A adrenergic receptor (Homo sapiens) (UniProt P35348); conditions: Compound concentration 10.0 uM
T1 sequence (whole entry): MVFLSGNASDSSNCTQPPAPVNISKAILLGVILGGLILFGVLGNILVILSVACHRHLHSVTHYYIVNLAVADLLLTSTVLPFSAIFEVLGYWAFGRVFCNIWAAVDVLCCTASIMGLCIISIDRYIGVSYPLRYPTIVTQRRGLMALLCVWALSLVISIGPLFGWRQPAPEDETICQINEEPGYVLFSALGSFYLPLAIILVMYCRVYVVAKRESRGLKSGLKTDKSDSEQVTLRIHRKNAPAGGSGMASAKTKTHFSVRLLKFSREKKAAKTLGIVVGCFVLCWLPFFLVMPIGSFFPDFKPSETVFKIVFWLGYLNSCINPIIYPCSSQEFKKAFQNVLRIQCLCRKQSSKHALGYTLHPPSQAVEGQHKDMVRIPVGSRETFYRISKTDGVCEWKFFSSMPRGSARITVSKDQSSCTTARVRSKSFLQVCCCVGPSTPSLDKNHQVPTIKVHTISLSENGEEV

[36] = target: LIM domain kinase 1 (Homo sapiens) (UniProt P53667); conditions: Compound concentration 1000.0 nM
[37] = target: Serine/threonine-protein kinase D3 (Homo sapiens) (UniProt O94806); conditions: Compound concentration 1000.0 nM
[38] = target: Serine/threonine-protein kinase pim-3 (Homo sapiens) (UniProt Q86V86); conditions: Compound concentration 1000.0 nM
[39] = system: Tyrosine-protein kinase ABL1 (Homo sapiens), P00519 [E255K]; conditions: Compound concentration 1000.0 nM

Tyrosine-protein kinase Fes/Fps (Homo sapiens), sequence (P07332 whole entry): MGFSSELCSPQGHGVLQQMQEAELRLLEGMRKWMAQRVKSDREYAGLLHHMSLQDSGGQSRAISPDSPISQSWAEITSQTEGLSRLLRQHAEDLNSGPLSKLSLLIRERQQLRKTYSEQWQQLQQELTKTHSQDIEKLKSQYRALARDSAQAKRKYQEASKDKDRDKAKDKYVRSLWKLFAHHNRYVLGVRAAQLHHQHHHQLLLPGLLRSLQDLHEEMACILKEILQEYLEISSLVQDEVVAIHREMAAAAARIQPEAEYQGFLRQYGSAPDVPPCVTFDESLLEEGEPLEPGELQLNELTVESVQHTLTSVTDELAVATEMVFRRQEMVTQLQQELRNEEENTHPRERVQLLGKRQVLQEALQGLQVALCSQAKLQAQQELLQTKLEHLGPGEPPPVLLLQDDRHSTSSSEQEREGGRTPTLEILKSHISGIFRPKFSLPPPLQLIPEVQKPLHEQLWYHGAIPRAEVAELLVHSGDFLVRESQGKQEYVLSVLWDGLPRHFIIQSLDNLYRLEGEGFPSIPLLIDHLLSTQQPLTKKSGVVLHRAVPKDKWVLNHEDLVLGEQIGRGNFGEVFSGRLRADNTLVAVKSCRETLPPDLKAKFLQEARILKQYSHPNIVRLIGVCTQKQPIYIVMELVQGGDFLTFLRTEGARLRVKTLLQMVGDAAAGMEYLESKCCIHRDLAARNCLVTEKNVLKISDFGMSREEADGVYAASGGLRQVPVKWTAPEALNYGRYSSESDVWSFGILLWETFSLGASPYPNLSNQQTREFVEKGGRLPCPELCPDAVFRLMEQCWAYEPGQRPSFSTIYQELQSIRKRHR
Ribosomal protein S6 kinase alpha-3 (Homo sapiens), sequence (P51812 whole entry): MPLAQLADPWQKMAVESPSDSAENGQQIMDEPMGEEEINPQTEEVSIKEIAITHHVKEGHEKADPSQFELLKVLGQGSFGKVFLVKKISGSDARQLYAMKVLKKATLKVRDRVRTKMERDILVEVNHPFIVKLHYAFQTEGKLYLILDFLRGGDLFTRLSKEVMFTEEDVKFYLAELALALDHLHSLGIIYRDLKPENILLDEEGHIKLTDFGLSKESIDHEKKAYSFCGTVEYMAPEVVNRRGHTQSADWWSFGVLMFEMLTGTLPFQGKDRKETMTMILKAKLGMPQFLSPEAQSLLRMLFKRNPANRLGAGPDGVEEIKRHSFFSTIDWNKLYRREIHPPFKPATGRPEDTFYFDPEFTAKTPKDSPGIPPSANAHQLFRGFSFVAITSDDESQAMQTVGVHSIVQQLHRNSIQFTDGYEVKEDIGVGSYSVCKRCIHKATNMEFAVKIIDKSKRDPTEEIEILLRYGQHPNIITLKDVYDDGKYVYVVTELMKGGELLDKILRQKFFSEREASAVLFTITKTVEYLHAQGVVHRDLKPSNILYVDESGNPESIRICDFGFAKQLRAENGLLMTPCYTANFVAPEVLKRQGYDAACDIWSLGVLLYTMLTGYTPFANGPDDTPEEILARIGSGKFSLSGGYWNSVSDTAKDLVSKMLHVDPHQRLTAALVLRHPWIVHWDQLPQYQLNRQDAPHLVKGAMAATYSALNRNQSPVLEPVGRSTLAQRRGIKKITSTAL
Cyclin-dependent kinase 19 (Homo sapiens), sequence (Q9BWU1 whole entry): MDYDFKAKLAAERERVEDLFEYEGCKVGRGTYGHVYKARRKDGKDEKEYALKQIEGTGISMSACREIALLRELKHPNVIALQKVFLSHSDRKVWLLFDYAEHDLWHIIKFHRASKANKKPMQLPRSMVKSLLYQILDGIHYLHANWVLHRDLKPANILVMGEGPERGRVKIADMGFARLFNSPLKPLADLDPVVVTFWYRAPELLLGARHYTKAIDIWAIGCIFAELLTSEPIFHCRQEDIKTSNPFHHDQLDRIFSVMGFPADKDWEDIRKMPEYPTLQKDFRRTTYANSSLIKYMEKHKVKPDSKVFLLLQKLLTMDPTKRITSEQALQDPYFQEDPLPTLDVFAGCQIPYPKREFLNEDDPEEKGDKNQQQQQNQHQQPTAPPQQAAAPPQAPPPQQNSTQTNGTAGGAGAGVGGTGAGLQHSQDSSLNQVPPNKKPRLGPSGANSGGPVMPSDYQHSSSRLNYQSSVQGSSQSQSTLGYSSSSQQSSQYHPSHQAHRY
Atypical kinase COQ8B, mitochondrial (Homo sapiens), sequence (Q96D53 whole entry): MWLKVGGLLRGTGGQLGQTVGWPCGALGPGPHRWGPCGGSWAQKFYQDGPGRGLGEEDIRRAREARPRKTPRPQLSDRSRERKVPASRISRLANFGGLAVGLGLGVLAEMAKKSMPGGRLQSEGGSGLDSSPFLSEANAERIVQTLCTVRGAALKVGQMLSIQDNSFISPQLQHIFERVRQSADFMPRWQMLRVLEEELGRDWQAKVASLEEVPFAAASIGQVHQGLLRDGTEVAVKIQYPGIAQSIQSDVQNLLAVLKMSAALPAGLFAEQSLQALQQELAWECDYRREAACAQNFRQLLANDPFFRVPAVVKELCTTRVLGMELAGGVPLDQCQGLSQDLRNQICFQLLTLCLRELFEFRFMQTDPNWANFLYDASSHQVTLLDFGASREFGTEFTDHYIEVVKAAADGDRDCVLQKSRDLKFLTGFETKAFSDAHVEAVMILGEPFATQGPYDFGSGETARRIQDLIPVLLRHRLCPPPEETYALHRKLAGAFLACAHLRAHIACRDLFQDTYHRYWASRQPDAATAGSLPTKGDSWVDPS
Serine/threonine-protein kinase D3 (Homo sapiens), sequence (O94806 whole entry): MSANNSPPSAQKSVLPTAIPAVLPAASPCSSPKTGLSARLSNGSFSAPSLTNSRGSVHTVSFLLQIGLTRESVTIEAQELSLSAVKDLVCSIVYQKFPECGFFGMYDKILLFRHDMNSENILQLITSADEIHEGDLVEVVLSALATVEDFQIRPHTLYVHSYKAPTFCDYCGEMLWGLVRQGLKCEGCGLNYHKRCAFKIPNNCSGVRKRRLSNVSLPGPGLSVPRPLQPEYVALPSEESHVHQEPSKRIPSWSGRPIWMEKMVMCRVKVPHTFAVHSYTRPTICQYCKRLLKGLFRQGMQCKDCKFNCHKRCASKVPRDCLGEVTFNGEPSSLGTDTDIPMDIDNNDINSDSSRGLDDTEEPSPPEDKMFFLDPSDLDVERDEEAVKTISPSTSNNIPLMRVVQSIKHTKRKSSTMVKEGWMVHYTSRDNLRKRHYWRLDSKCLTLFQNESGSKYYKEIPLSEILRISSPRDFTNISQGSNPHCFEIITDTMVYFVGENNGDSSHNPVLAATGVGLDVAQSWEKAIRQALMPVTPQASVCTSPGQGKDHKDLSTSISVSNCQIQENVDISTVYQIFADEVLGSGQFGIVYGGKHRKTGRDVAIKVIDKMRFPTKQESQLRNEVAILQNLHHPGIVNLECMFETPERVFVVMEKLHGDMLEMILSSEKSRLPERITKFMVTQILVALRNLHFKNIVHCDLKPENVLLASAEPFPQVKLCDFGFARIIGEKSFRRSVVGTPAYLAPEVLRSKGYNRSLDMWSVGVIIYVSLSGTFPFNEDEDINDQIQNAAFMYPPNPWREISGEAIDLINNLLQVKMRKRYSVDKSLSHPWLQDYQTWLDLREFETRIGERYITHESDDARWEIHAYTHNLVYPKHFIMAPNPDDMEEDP
SRSF protein kinase 3 (Homo sapiens), sequence (Q9UPE1 whole entry): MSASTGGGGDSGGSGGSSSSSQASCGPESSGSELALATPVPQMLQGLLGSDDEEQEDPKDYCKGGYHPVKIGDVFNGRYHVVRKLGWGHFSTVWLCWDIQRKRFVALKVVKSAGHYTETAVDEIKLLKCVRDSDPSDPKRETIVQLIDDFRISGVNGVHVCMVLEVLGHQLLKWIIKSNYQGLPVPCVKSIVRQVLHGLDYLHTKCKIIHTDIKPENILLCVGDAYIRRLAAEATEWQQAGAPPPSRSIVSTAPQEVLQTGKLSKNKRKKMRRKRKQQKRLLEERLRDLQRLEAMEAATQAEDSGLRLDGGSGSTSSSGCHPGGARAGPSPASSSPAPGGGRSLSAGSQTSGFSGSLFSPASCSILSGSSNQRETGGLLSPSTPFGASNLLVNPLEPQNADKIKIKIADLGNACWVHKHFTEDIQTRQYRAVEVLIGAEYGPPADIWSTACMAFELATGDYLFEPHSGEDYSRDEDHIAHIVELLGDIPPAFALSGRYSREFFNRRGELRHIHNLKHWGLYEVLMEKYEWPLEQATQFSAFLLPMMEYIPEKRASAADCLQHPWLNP
Serine/threonine-protein kinase OSR1 (Homo sapiens), sequence (O95747 2-527 limits assumed): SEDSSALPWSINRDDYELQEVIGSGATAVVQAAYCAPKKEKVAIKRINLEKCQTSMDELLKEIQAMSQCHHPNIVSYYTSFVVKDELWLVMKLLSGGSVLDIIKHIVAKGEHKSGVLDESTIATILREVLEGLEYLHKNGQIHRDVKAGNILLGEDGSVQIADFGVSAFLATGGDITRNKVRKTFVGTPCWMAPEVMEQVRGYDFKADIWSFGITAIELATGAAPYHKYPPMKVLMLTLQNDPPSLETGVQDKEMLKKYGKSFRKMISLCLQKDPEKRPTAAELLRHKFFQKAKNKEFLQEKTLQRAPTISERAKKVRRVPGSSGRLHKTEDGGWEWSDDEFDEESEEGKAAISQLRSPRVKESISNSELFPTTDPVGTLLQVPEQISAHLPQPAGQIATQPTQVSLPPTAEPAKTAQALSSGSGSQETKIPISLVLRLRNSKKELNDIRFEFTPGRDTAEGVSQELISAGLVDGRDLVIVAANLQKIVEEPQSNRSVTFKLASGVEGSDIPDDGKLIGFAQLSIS

NS(=O)(=O)c1cc(NC(=O)C2(c3ccccc3Cl)CC2)ccc1Oc1cccc(Cl)c1 [BAY-207]
inactive: residual activity [1] 100% | residual activity [2] 78% | residual activity [3] 85% | residual activity [4] 91% | residual activity [5] 100% | inhibition [6] -9.74% | residual activity [7] 79% | residual activity [8] 100% | residual activity [9] 100% | residual activity [10] 76% | residual activity [11] 98% | residual activity [12] 100% | residual activity [13] 64% | residual activity [14] 80% | residual activity [15] 69% | residual activity [16] 81% | residual activity [17] 100% | residual activity [18] 100% | residual activity [19] 70% | residual activity [20] 89% | residual activity [21] 89% | residual activity [22] 75% | residual activity [23] 92% | residual activity [24] 59% | residual activity [25] 100% | residual activity [26] 63% | residual activity [27] 100% | residual activity [28] 74% | residual activity [29] 70% | residual activity [30] 91% | residual activity [31] 100% | inhibition [32] 20.8% | residual activity [33] 100% | residual activity [34] 100% | inhibition [35] 15.1% | residual activity [36] 100% | residual activity [37] 85% | residual activity [38] 88% | residual activity [39] 72%

NS(=O)(=O)c1cc(NC(=O)Cc2ccccc2)ccc1Oc1cccc(Cl)c1 [BAY-1797]
inactive: residual activity [1] 100% | residual activity [2] 93% | residual activity [3] 91% | residual activity [4] 68% | residual activity [5] 86% | inhibition [6] -7.81% | residual activity [7] 87% | residual activity [8] 95% | residual activity [9] 69% | residual activity [10] 100% | residual activity [11] 91% | residual activity [12] 59% | residual activity [13] 92% | residual activity [14] 100% | residual activity [15] 76% | residual activity [16] 69% | residual activity [17] 72% | residual activity [18] 92% | residual activity [19] 66% | residual activity [20] 100% | residual activity [21] 72% | residual activity [22] 55% | residual activity [23] 98% | residual activity [24] 67% | residual activity [25] 84% | residual activity [26] 100% | residual activity [27] 86% | residual activity [28] 99% | residual activity [29] 78% | residual activity [30] 93% | residual activity [31] 78% | inhibition [32] 27.7% | residual activity [33] 100% | residual activity [34] 100% | inhibition [35] 5.04% | residual activity [36] 87% | residual activity [37] 100% | residual activity [38] 96% | residual activity [39] 69%
